From patent US8211462B2, “Hot-melt TTS for administering rotigotine” (UCB Pharma GmbH, priority 2002, dated 2012) come the findings set out here.

Molecules are shown by their SMILES.

Data set [1] can be described thus: Active-substance stability: rotigotine purity in the cement matrix by gradient HPLC. Format: physicochemical. The settings on record: hot-melt processing. The procedure: The cement matrix was mixed with 0.1% methane sulfonic acid, agitated, centrifuged and measured. (b3) Analytics of the Active-Substance Stability: […] Column: LiChrosphere 100 CN, 125 mm×4.6 mm, 5 μm. Flow rate: 1.0 mL, column temperature: 40° C. UV detection (2 wavelengths: 272 and 220 nm).

The nature of data set [2]: Solubility of rotigotine in hydrophobic adhesives. Format: physicochemical.

For `CCCN(CCc1cccs1)[C@H]1CCc2c(O)cccc2C1` [rotigotine, (−)-5,6,7,8-tetrahydro-6-[propyl[2-(2-thienyl)ethyl-)amino]-1-naphthol], the “remains stable under short-term heating to temperatures up to” value in data set [1] was “at least 160 °C”. For the same compound, in data set [2], the “solubility of rotigotine in hydrophobic adhesives such as silicones” value is given as “soluble in trace amounts only”.
